Each structure is given as a SMILES string.

Usually melting point stands for the temperature of the solid-liquid transition. `CCCc1cnc(N2CCC(c3ccc(COc4ccc(S(C)(=O)=O)cc4)nc3)CC2)nc1` [Example 49, 2-[4-[2-(4-Methanesulfonylphenoxymethyl)pyridin-5-yl]piperidin-1-yl]-5-propylpyrimidine] had a melting point of 164 to 166 °C.

`CCOC(=O)c1ccc(OCc2ccc(C3CCN(C(=O)OC(C)(C)C)CC3)cn2)cc1F` [Example 9, tert-Butyl 4-[2-(4-ethoxycarbonyl-3-fluorophenoxymethyl)pyridin-5-yl]piperidine-1-carboxylate] displayed a melting point of 92 to 95 °C. As for `CCOC(=O)N1CCC(c2ccc(COc3ccc(S(C)(=O)=O)cc3)nc2)CC1` [Example 43, Ethyl 4-[2-(4-methanesulfonylphenoxymethyl)pyridin-5-yl]piperidine-1-carboxylate], the figure is 119 to 121 °C; as for `CCCCCc1cnc(N2CCC(c3ccc(COc4ccc(C#N)c(F)c4)nc3)CC2)nc1` [Example 54, 2-[4-[2-(4-Cyano-3-fluorophenoxymethyl)pyridin-5-yl]piperidin-1-yl]-5-pentylpyrimidine], 92 to 94 °C.
